A melting point compilation (Tetko et al.; mined from patent text by program, amines drawn as free bases though some values may be those of a salt)

`Fc1ccc(C2=CC(=C(C(F)(F)F)C(F)(F)F)N=C2c2ccc(F)cc2)cc1` gave a melting point of 145 to 146 °C.
With `CCc1nnc(CCc2ccc([N+](=O)[O-])cc2)o1` the melting point was 65 to 66 °C.
For `C[C@H](NC(=O)OC(C)(C)C)C(=O)N1CCC[C@H]1C(=O)O`, the melting point was 155 to 157 °C.
Work on `CC1(C)Cc2ccc(C(F)(F)F)c(C#N)c2O1` yielded a melting point of 79 to 83 °C.
`NS(=O)(=O)c1cccc(-c2cc(-c3nc(-c4ccc(C(F)(F)F)c(OCC(F)(F)F)c4)cc(C(F)(F)F)n3)ccn2)c1` showed a melting point of 211 °C.
`O=C(O)C(=O)c1ccc(OCC(=O)c2cccc3ccccc23)cc1` showed a melting point of 141 to 143 °C.
With `COC(=O)COc1ccc(C=Cc2nc(-c3ccccc3)c(-c3ccccc3)o2)cc1` the melting point was 122 to 123 °C.
In the case of `C#CCOc1ccc(S(=O)(=O)C2(C(=O)O)CCN(Cc3ccc(OC)cc3)CC2)cc1`, the melting point is reported as 208 °C.
`O=S(=O)(Cc1ccccc1)c1c[nH]c2ccccc12` showed a melting point of 153 to 155 °C.
Work on `NC(=O)c1ccc(-c2nn(Cc3ccccc3)c3ccccc23)o1` yielded a melting point of 259 °C.
Molecule `COc1ccc(CCNC(=O)N(O)C(C)C)cc1OC` has a melting point of 113 to 114 °C.
In the case of `COC(=O)C(C)Oc1ccc(Oc2ccc(Br)cc2F)cc1` (stereo unspecified), the melting point is reported as 62 to 64 °C.
`C=Cc1ccc(C(=O)Oc2ccc(C(=O)O)cc2)cc1C12CC3CC(CC(C3)C1)C2` showed a melting point of 86 to 87 °C.
`COc1ccc(OC)c(COc2ccc(S(=O)(=O)c3ccc(C)nc3Nc3c(C)cc(C)cc3C)cc2)c1` gave a melting point of 128 to 130 °C.
`CC[C@H](C)[C@H](NC(=O)O[C@@H](CC(C)C)C(=O)OCc1ccccc1)C(=O)NC(C)C` gave a melting point of 90 to 92 °C.
In the case of `CN(C)CCCOc1cc(F)c(-c2c(Cl)nc(-n3ccnc3)nc2NCC(F)(F)F)c(F)c1`, the melting point is reported as 47 to 49 °C.
`O=C1CCC(CN2C(=O)C3(COc4cc5c(cc43)OCO5)c3ccccc32)N1` (stereo unspecified) gave a melting point of 121 to 130 °C.
In the case of `CSc1cc2c(cc1C(F)(F)F)N(C(=O)Nc1cccc(OCCCN(C)C)c1)CC2`, the melting point is reported as 149 to 151 °C.
Molecule `S=C(NCCCCN(Cc1ccc(Cl)c(Cl)c1)c1ccc(Br)cn1)NCCCc1c[nH]cn1` has a melting point of 63 to 67 °C.
For `COCc1cc(-c2nc(-c3cnc(N)c(C)c3)no2)ccc1-c1ccccc1F`, the melting point was 162 to 164 °C.
`COc1ccc(N2CCN(c3c(C)c(C)c4c(c3C)C(=O)C(C)(C)O4)CC2)cc1OC` showed a melting point of 153 to 154 °C.
Molecule `Nc1nc2c(c(N3CCN(CCc4ccccc4)CC3)n1)Cc1ccccc1-2` has a melting point of 122 to 124 °C.
For `CN(C)c1ccc(C2(CNC(=O)Nc3ccccc3CCc3cc(C(C)(C)C)c(O)c(C(C)(C)C)c3)CCCC2)cc1`, the melting point was 174 to 175 °C.
Work on `CCCCCCCCCCCCCCCC1Cc2ccc(C(=O)O)cc2N1` (racemic) yielded a melting point of 119 to 122 °C.
`CC1(C)Oc2cc3nonc3cc2C(NC(=O)NCCCl)C1O` (stereo unspecified) gave a melting point of 178 to 180 °C.
`COc1cc(C)c(Cl)cn1` showed a melting point of 32 to 33 °C.
For `O=C(O)CCCC/C=C(/c1ccc(-c2nc(C(=O)NCCCCC3CCCCC3)co2)cc1)c1cccnc1`, the melting point was 52 to 56 °C.
Molecule `CC1CC(=O)NN=C1c1ccc(-n2ccc(=O)cc2)cc1` (stereo unspecified) has a melting point of 254 to 256 °C.
With `CN(C(=O)OC(C)(C)C)c1cc(Oc2ccc(C#N)cc2)ccc1[N+](=O)[O-]` the melting point was 141 to 143 °C.
Work on `Cn1nc(N)c2sc3c(Cl)cccc3c21` yielded a melting point of 239 to 241 °C.
Molecule `CC(C)c1ccccc1Sc1c(O)cc(-c2ccc3c(c2)OCCO3)oc1=O` has a melting point of 246 to 248 °C.
With `COc1cc(C)c(Cc2cnc(N)nc2N)cc1OC` the melting point was 223 to 225 °C.
`O=S1CCc2nc(N3CCN(c4ccccc4)CC3)nc(Nc3cccc(Cl)c3)c21` (stereo unspecified) gave a melting point of 230 to 231 °C.
Molecule `CCOc1nc(Nc2ccc(F)c(F)c2)nc(NC2CCN(S(=O)(=O)c3ccc(F)cc3)CC2)n1` has a melting point of 240 to 242 °C.
Work on `CCOC(=O)C(=O)CC(=O)/C=C/c1ccc(Cl)cc1F` yielded a melting point of 84 to 85 °C.
For `CCOC(=O)c1cc(Oc2ccc3c(C(=O)Nc4cccc(C(F)(F)F)c4)cccc3c2)ncn1`, the melting point was 194 °C.
With `N#Cc1cnn(-c2nc(Cl)c(C(F)(F)F)cc2Cl)c1Br` the melting point was 121 to 122 °C.
`CCCCCCCCCCCCCCCCCC(=O)Nc1ccc(NC(=O)NS(=O)(=O)c2ccc3ccccc3c2)cc1` showed a melting point of 192 °C.
`CC(=O)Oc1cc([N+](=O)[O-])cc([N+](=O)[O-])c1OC(C)=O` gave a melting point of 115 to 117 °C.
Work on `O=C(O)c1cc2c(Cl)cccc2s1` yielded a melting point of 227 to 231 °C.
`COc1cc(NC(=O)c2ccc(-c3ccncc3)cc2)cc(N2CCN(C)CC2)c1OC` gave a melting point of 219 to 221 °C.
In the case of `CCCCCN(C)C12CN3CN(CN(C3)C1)C2`, the melting point is reported as 30 to 31 °C.
Molecule `CC1CCCC(C)N1S(=O)(=O)N[C@@H](Cc1ccc(Nc2nccc3cnccc23)cc1)C(=O)O` (stereo partly specified) has a melting point of 204 °C.
Work on `CON(C(=O)c1cn(C)nc1C(F)F)C(C)c1cccc(-c2ccc(Cl)c(Cl)c2)c1` (stereo unspecified) yielded a melting point of 162 to 164 °C.
Molecule `COc1cc(C(=O)c2ccc(C(F)(F)F)cc2)cc(C#N)c1OC` has a melting point of 130 °C.
Work on `COc1ccc(OC)c(S(=O)(=O)c2ccc(Cl)cc2NC(=O)N[C@@H](Cc2ccc(NC(=O)c3c(Cl)cncc3Cl)cc2)C(=O)O)c1` yielded a melting point of 168 °C.
With `Cc1ccc(-c2ccc(Sc3ccccc3)s2)cc1C` the melting point was 77 to 78 °C.
Molecule `c1ccc2c(OCC3CO3)c(OCC3CO3)ccc2c1` (stereo unspecified) has a melting point of 131 to 133 °C.
Molecule `CN1Cc2c(C#N)ncn2-c2ccc(Cl)cc2C1=O` has a melting point of 272 to 275 °C.
For `CC1Cc2cc(C(=O)O)ccc2C1=O` (stereo unspecified), the melting point was 189 to 194 °C.
In the case of `Fc1cccc(F)c1C1=NC(c2ccc(C#Cc3ccc(Cl)cc3)cc2)CO1` (stereo unspecified), the melting point is reported as 155 to 156 °C.
With `O=C(O)c1cccc(-c2ncn(-c3ccc(N4CCCC4=O)cc3)n2)c1` the melting point was 270 to 273 °C.
`Cn1c(-c2ccc(Cl)cc2)cc2cc(C(=O)O)ccc21` showed a melting point of over 260 °C.
For `CC(C)(C)c1cc(CC(S)C(=O)O)cc(C(C)(C)C)c1O` (stereo unspecified), the melting point was 137 to 140 °C.
`CC(=O)N(C)C(Cc1ccccc1N)c1ccccn1` (stereo unspecified) showed a melting point of 103 to 107 °C.
Molecule `O=S1(=O)N=C(NCCc2ccccc2)Nc2ccc(Cl)cc21` has a melting point of 250 to 252 °C.
For `Nc1cccc(OCc2ccccc2)c1NC(=O)c1ccc(OCc2ccccc2)c(C23CC4CC(CC(C4)C2)C3)c1`, the melting point was 80 to 82 °C.
For `COCc1cnn2c(-c3cccc(C(F)(F)F)c3)ccnc12`, the melting point was 114 to 116 °C.
With `COc1cc(C(C)(C)C(N)=O)cc2c1OC(C)(C)C2` the melting point was 112 to 113 °C.
With `CC(C)(C)c1cc(C2SC(CC(=O)O)C(=O)N2CCCO)cc(C(C)(C)C)c1O` (stereo unspecified) the melting point was 227 to 228 °C.
For `CCC(Oc1cc(N)c(Cl)cc1C(=O)NCCN(CC)CC)C(C)=O` (stereo unspecified), the melting point was 75 to 78 °C.
In the case of `COC(=O)Nc1cn2cc(S(=O)c3ccccn3)ccc2n1` (stereo unspecified), the melting point is reported as 231 to 235 °C.
With `FC(F)(F)c1cc(Cl)c(Oc2cc(C3CC3)[nH]n2)c(Cl)c1` the melting point was 119 to 121 °C.
Molecule `COC(=NS(=O)(=O)c1nc(-c2ccccc2C)ns1)C(C)C` has a melting point of 116 to 118 °C.
`NCC(O)COc1ccc(OCC(O)CN)cc1` (stereo unspecified) gave a melting point of 128 to 132 °C.
With `Cc1cc(-c2cc(C(F)(F)F)n3ncc(-c4ccnc(CO)c4)c3n2)ccc1C(F)(F)F` the melting point was 231 °C.
Work on `O=C(CNN1C(=O)c2ccccc2S1(=O)=O)N[C@@H](Cc1ccccc1)C(=O)O` yielded a melting point of 201 to 204 °C.
Work on `CCOC(=O)c1c(Cl)nc2cc3c(cc2c1CCl)OCCO3` yielded a melting point of over 260 °C.
`Nc1nc(OCCC2CCCCC2)nc2c1ncn2C1OC(CO)C(O)C1O` (stereo unspecified) showed a melting point of 105 to 112 °C.
`NC(=O)c1nc(-c2cccc(O)c2)nc2c1[nH]c(=O)n2-c1cccc2c1CCCC2` showed a melting point of over 250 °C.
With `CC(=O)OC1CSC(Oc2cccc(-c3c(C)n[nH]c3C)c2)C(OC(C)=O)C1OC(C)=O` (stereo unspecified) the melting point was 195 °C.
`CC(C)c1cc(C(=O)C=CC(=O)N2CCN(C)CC2)ccc1OCC(=O)Nc1nc2ccccc2s1` gave a melting point of 114 to 115 °C.
Work on `CCc1nc(Cl)c(C(=O)NC)n1Cc1ccc2oc(-c3ccccc3N)c(Br)c2c1` yielded a melting point of 68 to 70 °C.
`CCc1cc2c(=O)c3cccc(C(=O)OC)c3n(Cc3ccc(-c4ccccc4-c4nnn[nH]4)cc3)c2s1` showed a melting point of 228 to 231 °C.
Work on `COc1ccc(CC(=O)O)cc1C(=O)NCc1ccc(C(F)(F)F)cc1` yielded a melting point of 167 to 168 °C.
Work on `O=c1[nH]c2c(Cl)cccc2c(=O)n1CCCN1CC=C(c2cccc(Cl)c2)CC1` yielded a melting point of 210 to 215 °C.
In the case of `CC1(C)CC(=O)C(C(=O)Nc2ccc(Cl)c(Cl)c2)C(=O)C1`, the melting point is reported as 124 to 129 °C.
For `FC(F)(F)c1ccc(Cl)cc1CN1CCNc2ncc(-c3cn[nH]c3)cc21`, the melting point was 271 °C.
For `CC1(C)CCCN(C(=O)CN2C(=O)C(NC(=O)Nc3cccc(C(=O)OC(C)(C)C)c3)C(=O)N(c3ccccc3F)c3ccccc32)C1` (stereo unspecified), the melting point was 170 °C.
Molecule `CC(C)c1nc(COCc2ccccc2)n(CC2CC2)c1Sc1cc(Cl)cc(Cl)c1` has a melting point of 120 to 121 °C.
For `Cn1ccnc1S(=O)(=O)CC(=O)C12CC3CC(CC(C3)C1)C2`, the melting point was 124 to 125 °C.
For `COc1cc(OC)c2c(=O)[nH]c(-c3cc(C)c(OCCN(C)C)c(C)c3)cc2c1`, the melting point was 261 to 263 °C.
With `CCCc1c(N)c(C(C)=O)cc(C(C)=O)c1O` the melting point was 138 to 139 °C.
Work on `CN(C)Cc1nnc2n1-c1sc(Cl)cc1C(c1ccccc1[N+](=O)[O-])=NC2` yielded a melting point of 234 to 236 °C.
`COc1cccc(OC)c1C(=O)Nc1nnc(-c2ccccc2Cl)s1` showed a melting point of 235 to 237 °C.
With `CCOC(=O)N1CCc2nc3ccc(N)cc3c(C)c2CC1` the melting point was 214 to 216 °C.
For `CN(c1cccc2cc(C3=NCC4(CCN(CCO)CC4)S3)[nH]c12)S(=O)(=O)c1cccs1`, the melting point was 214 °C.
In the case of `CCCCCCCCCCCCCCN=C=S`, the melting point is reported as 77 to 79 °C.
`COc1ccc(-c2nc(N3CCN(C)CC3)c3c(C)c(C#N)sc3n2)cc1OC` gave a melting point of 208 to 209 °C.
`COc1ccc(C(O)(CN2CCNC2=O)c2ccccc2)cc1OC` (stereo unspecified) gave a melting point of 154 °C.
For `CC(O)(C1=CCNCC1)c1ccc(F)cc1` (stereo unspecified), the melting point was 168 °C.
`COc1ccc(CCCNC(=O)c2coc(-c3ccc(/C(=C\CCCCC(=O)O)c4cccnc4)cc3)n2)cc1` showed a melting point of 49 to 58 °C.
`COCc1cc2c(-c3ccc(C(F)(F)F)n(C)c3=O)c(F)cc(Cl)c2o1` gave a melting point of 136 to 137 °C.
Work on `O=[N+]([O-])c1ccc2[nH]cc(Cc3ccc(F)cc3)c2c1` yielded a melting point of 142 to 144 °C.
`Cc1cc(C(Cl)=NO)ccc1Br` showed a melting point of 77 to 78 °C.
For `CN1C(=O)CC[C@]2(C)c3ccc(-c4cc(C(C)(C)C)c(O)c(C(C)(C)C)c4)cc3CC[C@@H]12`, the melting point was over 265 °C.
